Experimental data published in patent US20180110824A1, “Macrocyclic Modulators of the Ghrelin Receptor” (Ocera Therapeutics, Inc., priority 2016, published 2018).
pEC50: −log10 of the molar value.

Tests used:
[1] = target: T1, hGHS-R1a (Homo sapiens, UniProt Q92847); assay: hGHS-R1a receptor agonism and desensitization by FLIPR in HEK293 cells; format: cell-based
T1 construct: expressed in transfected cells; host or cells: HEK293
Procedure: • 1. Studies by FLIPR (Fluorometric Imaging Plate Reader, Molecular Devices). • 2. Assay performed on HEK293 cells expressing hGHS-R1a. • 3. […] A DC50 value is calculated.

[2] = tested on: gastric emptying in fasted rats; assay: Gastric emptying in fasted rats (phenol red methylcellulose meal); format: in vivo, rat; conditions: i.v.
Procedure: To examine the effects of compounds of the invention in a model for gastroparesis, compounds were evaluated for possible effects on gastric emptying in fasted rats.
GHRP-6 and test samples were dissolved in vehicle of 9% HPBCD/0.9% NaCl. Immediately following oral administration of methylcellulose (2%) containing phenol red (0.05%) (2 mL/rat), test substances or vehicle (9% HPBCD/0.9% NaCl) were each administered intravenously (i.v.) at a dosing volume of 5 mL/kg.
Male Wistar rats were provided by LASCO (A Charles River Licensee Corporation, Taiwan). Space allocation for 6 animals was 45×23×15 cm. Animals were housed in APEC® cages and maintained in a controlled temperature (22° C.-24° C.) and humidity (60% -80%) environment with 12 h light, 12 h dark cycles for at least one week in the laboratory prior to being used. Free access to standard lab chow for rats (Lab Diet, Rodent Diet, PMI Nutrition International, USA) and tap water was granted. All aspects of this work including housing, experimentation and disposal of animals were performed in general accordance with the Guide for the Care and Use of Laboratory Animals (National Academy Press, Washington, D.C., 1996).
Test substances were each administered intravenously to a group of 5 O/N-fasted Wistar derived male rats weighing 200±20 g immediately after methylcellulose (2%) containing phenol red (0.05%) was administered orally at 2 mL/animal. The animals were then sacrificed 15 minutes later. The stomach was immediately removed, homogenized in 0.1 N NaOH (5 mL) and centrifuged. Following protein precipitation by 20% trichloroacetic acid (0.5 mL)and re-alkalization of the supernatant with 0.1 N NaOH, total phenol red remaining in the stomach was determined by a colorimetric method at 560 nm. A 30 percent or more (≥30%) increase in gastric emptying, detected as the decrease in phenol red concentration in the stomach relative to the vehicle control group, is considered significant.
• 1. Overnight-fasted rats (male Wistar, ˜200 g, N=5/group) were given a meal of methylcellulose (2%) by intragastric gavage. The meal was labeled with phenol red (0.05%). • 2. […] Animals were sacrificed 15 minutes later; the stomach was immediately removed and homogenized in 0.1 N NaOH and centrifuged. • 4. Total phenol red remaining in the stomach was quantified by a colorimetric method at 560 nm. • 5. A >30% increase in gastric emptying, detected based on the phenol red concentration in comparison to the control group, is considered significant.

[3] = tested on: rat model of post-operative ileus (POI); assay: Gastric emptying and intestinal transit in rat model of postoperative ileus; format: in vivo
Text: This clinically relevant model for POI is adapted from that of […].; Simmons, R. L.; Bauer, A. J. Surgical manipulation of the gut elicits an intestinal muscularis inflammatory response resulting in postsurgical ileus. Ann. Surg. 1998, 228, 652-663.) Other known models can also be used to study the effect of compounds of the invention. […] Rat, Sprague-Dawley, male, 300 g. • 2. Fasted O/N prior to study. • 1. Isofluorane anaesthesia under sterile conditions. • 2. Midline abdominal incision. • 3. Intestines and caecum were eviscerated and kept moist with saline. • 4. the intestines and caecum were manipulated along its entire length with moist cotton applicators analogous to the 'running of the bowel' in the clinical setting. This procedure was timed to last for 10 min. • 5. Intestines were gently replaced into the abdomen and the abdominal wound was stitched closed under sterile conditions. • 1. Rat was allowed to recover from isofluorane anaesthesia. • 2. Test compounds (or vehicle) were administered intravenously via previously implanted jugular catheter. • 3. Immediate intragastric gavage of methylcellulose (2%) labeled with radioactive ^99mTc, T=0. • 1. At t=15 min, animal was euthanized with CO2. • 2. Stomach and 10 cm sections along the small intestine were immediately ligated, cut and placed in tubes for measuring of ^99mTc in gamma counter. • 3. Stomach emptying and small intestinal transit were measured by calculation of the geometric mean. Geometric mean=Σ(% total radioactivity×number of segment)/100 • 1. Model adapted from Kälff et al. (1998), Ann Surg 228:652-63. • 2. Rats (male, Sprague-Dawley, 250-300 g) were implanted with jugular vein catheters to accommodate dosing of test articles. • 3. Rats were fasted O/N, anesthetized with isofluorane and subjected to abdominal surgery. • 4. Following an abdominal incision, the smalt intestine caecum and large intestine were eviscerated for a period of 15 min and kept moist with saline. • 5. […] Radioactivity (^99mTc) in each tissue isolate was measured as a means of measuring the transit of the meal.

T1 sequence (Q92847 whole entry): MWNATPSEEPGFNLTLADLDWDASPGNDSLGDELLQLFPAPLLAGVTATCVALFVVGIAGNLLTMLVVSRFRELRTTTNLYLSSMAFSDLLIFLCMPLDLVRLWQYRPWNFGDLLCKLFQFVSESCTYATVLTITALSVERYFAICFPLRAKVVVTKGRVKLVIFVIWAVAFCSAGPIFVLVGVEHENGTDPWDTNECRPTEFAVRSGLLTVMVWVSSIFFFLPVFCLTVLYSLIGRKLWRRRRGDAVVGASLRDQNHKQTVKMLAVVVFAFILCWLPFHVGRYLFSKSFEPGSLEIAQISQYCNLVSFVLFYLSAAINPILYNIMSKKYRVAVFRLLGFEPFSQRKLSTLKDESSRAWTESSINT

CC1C(=O)NC(Cc2ccc(F)cc2)C(=O)NCCCc2ccccc2O[C@H](C)CNC(C2CC2)C(=O)N1C (stereo partly shown) [compound 298]
desensitization potency lower than other ghrelin agonists (ghrelin peptide, capromorelin) ([1]; FIG. 13C): ~10 fold
DC50 value less potent than the EC50 value ([1]; FLIPR, HEK293): > 6 fold
agonist type ([1]; FLIPR, HEK293): full agonist
pEC50 ([1]; FLIPR, HEK293 cells expressing hGHS-R1a, FIG. 13A): 8.30
DC50 ([1]; read-out: DC50 (pre-treatment concentration that desensitizes the ghrelin EC100 response by 50%), 3 minutes pre-treatment, FLIPR, HEK293, FIG. 13B): 32 nM
gastric emptying of a meal in naïve rat ([2]; FIGS. 14A and 14B): caused significant gastric emptying in a dose-dependent manner
potency superior to metoclopramide in gastric emptying ([2]; naïve rats, FIG. 14B): ~100 fold
promotion of GI transit (geometric center of the meal) vs POI+vehicle ([3]; 100 μg/kg (i.v.)): 2.7 ×
effect on postoperative ileus vs POI+vehicle treated rats ([3]; 100 μg/kg i.v., n=5, FIG. 8): significantly improves postoperative ileus
gastric emptying and intestinal transit in POI rats ([3]; 100 and 300 μg/kg (i.v.)): significantly increased gastric emptying and intestinal transit
